Reference: patent publication US20070128217A1 (priority 2003, published 2007)

What was measured:
[1] = tested on: antibodies in sera from SARS patients (sera 1a, 1b, 2, 6, 37, 62, London, SARS-yellow, SARS-green); format: binding, human; parameters: Binding of serum 6 to linear peptides of protein X1 of SARS-CoV Urbani / Binding of serum 37 to linear peptides of protein X1 of SARS-CoV Urbani / Binding of serum 6 to looped/cyclic peptide (PEPSCAN-ELISA) / Binding of serum 37 to looped/cyclic peptide (PEPSCAN-ELISA) / Binding of serum 37 to looped/cyclic peptides of protein X1 of SARS-CoV Urbani / Binding of serum 6 to linear peptides of protein X2 / Binding of serum 37 to linear peptides of protein X2 / Binding of serum 37 to looped/cyclic peptides of protein X2 of SARS-CoV Urbani / Binding of serum 6 to linear peptides of protein M of SARS-CoV Urbani / Binding of serum 37 to linear peptides of protein M of SARS-CoV Urbani / Binding of serum 6 to looped/cyclic peptides of protein M of SARS-CoV Urbani / Binding of serum 37 to looped/cyclic peptides of protein M of SARS-CoV Urbani / Binding of serum 6 to linear peptides of protein X3 of SARS-CoV Urbani / Binding of serum 37 to linear peptides of protein X3 of SARS-CoV Urbani / Binding of serum 37 to looped/cyclic peptides of protein X3 of SARS-CoV Urbani / Binding of serum 6 to linear peptides of protein X4 of SARS-CoV Urbani / Binding of serum 37 to linear peptides of protein X4 of SARS-CoV Urbani / Binding of serum 37 to looped/cyclic peptides of protein X4 of SARS-CoV Urbani / Binding of serum 6 to linear peptides of protein X5 of SARS-CoV Urbani / Binding of serum 37 to linear peptides of protein X5 of SARS-CoV Urbani / Binding of serum 37 to looped/cyclic peptides of protein X5 of SARS-CoV Urbani / Binding of serum 6 to linear peptides of protein N of SARS-CoV Urbani / Binding of serum 37 to linear peptides of protein N of SARS-CoV Urbani / Binding of serum 6 to linear peptide (PEPSCAN-ELISA) / Binding of serum 1a to looped/cyclic peptides of protein N of SARS-CoV Urbani / Binding of serum 1b to looped/cyclic peptides of protein N of SARS-CoV Urbani / Binding of serum 2 to looped/cyclic peptides of protein N of SARS-CoV Urbani / Binding of serum 6 to looped/cyclic peptides of protein N of SARS-CoV Urbani / Binding of serum 37 to looped/cyclic peptides of protein N of SARS-CoV Urbani / Binding of serum 62 to looped/cyclic peptides of protein N of SARS-CoV Urbani / Binding of serum London to looped/cyclic peptides of protein N of SARS-CoV Urbani / Binding of serum SARS-green to looped/cyclic peptides of protein N of SARS-CoV Urbani: unit not given here
[2] = tested on: control sera (pooled serum of ten healthy LUMC hospital workers; commercial negative donor pooled serum from the Dutch bloodbank); format: binding, human; parameters: Binding of Control serum LUMC to linear peptides / Binding of Control serum Blood-bank to linear peptides / Binding of Control serum LUMC to looped peptides / Binding of Control Serum Blood-Bank to Looped peptides / Binding of Control serum LUMC to linear peptides of the protein M of SARS-CoV Urbani / Binding of Control serum Blood-bank to linear peptides of the protein M of SARS-CoV Urbani / Binding of Control serum LUMC to looped peptides of the protein M of SARS-CoV Urbani / Binding of Control Serum Blood-Bank to Looped peptides of the protein M of SARS-CoV Urbani: unit not given here
[3] = tested on: rabbit serum obtained by immunizing a rabbit with the SARS-CoV strain Frankfurt 1; format: binding; parameters: Binding of a rabbit serum to linear peptides / Binding of a rabbit serum to looped peptides / Rabbit serum linear peptides / Rabbit serum looped peptides / Binding of a rabbit serum to linear peptides of protein N of SARS-CoV Urbani (Rabbit serum linear peptides) / Binding of a rabbit serum to looped/cyclic peptides of protein N of SARS-CoV Urbani (Rabbit serum looped peptides): unit not given here

AILTALRLCAYCCNI
Binding of serum 1a to linear peptides of protein E of SARS-CoV Urbani [1]: 0.6
Binding of serum 1a to looped/cyclic peptides of protein E of SARS-CoV Urbani [1]: 0.8
Binding of serum 1b to linear peptides of protein E of SARS-CoV Urbani [1]: 0.4
Binding of serum 1b to looped/cyclic peptides of protein E of SARS-CoV Urbani [1]: 0.6
Binding of serum 2 to linear peptides of protein E of SARS-CoV Urbani [1]: 0.5
Binding of serum 2 to looped/cyclic peptides of protein E of SARS-CoV Urbani [1]: 0.7
Binding of serum 6 to linear peptides of protein E of SARS-CoV Urbani [1]: 0.3
Binding of serum 6 to looped/cyclic peptides of protein E of SARS-CoV Urbani [1]: 0.5
Binding of serum 37 to linear peptides of protein E of SARS-CoV Urbani [1]: 0.4
Binding of serum 37 to looped/cyclic peptides of protein E of SARS-CoV Urbani [1]: 0.7
Binding of serum 62 to linear peptides of protein E of SARS-CoV Urbani [1]: 0.4
Binding of serum 62 to looped/cyclic peptides of protein E of SARS-CoV Urbani [1]: 0.8
Binding of serum London to linear peptides of protein E of SARS-CoV Urbani [1]: 0.5
Binding of serum London to looped/cyclic peptides of protein E of SARS-CoV Urbani [1]: 0.4
Binding of serum SARS-green to linear peptides of protein E of SARS-CoV Urbani [1]: 0.5
Binding of serum SARS-green to looped/cyclic peptides of protein E of SARS-CoV Urbani [1]: 0.5
Binding of serum SARS-yellow to linear peptides of protein E of SARS-CoV Urbani [1]: 0.1
Binding of serum SARS-yellow to looped/cyclic peptides of protein E of SARS-CoV Urbani [1]: 0.9
Binding of Control Serum Blood-Bank to Looped peptides [2]: 0.6
Binding of Control serum Blood-bank to linear peptides [2]: 0.6
Binding of Control serum LUMC to linear peptides [2]: 0.6
Binding of Control serum LUMC to looped peptides [2]: 0.8
Binding of a rabbit serum to linear peptides [3]: 0.2
Binding of a rabbit serum to looped peptides [3]: 0.6

ETGTLIVNSVLLFLA
Binding of serum 1a to linear peptides of protein E of SARS-CoV Urbani [1]: 0.8
Binding of serum 1a to looped/cyclic peptides of protein E of SARS-CoV Urbani [1]: 0.5
Binding of serum 1b to linear peptides of protein E of SARS-CoV Urbani [1]: 0.7
Binding of serum 1b to looped/cyclic peptides of protein E of SARS-CoV Urbani [1]: 0.4
Binding of serum 2 to linear peptides of protein E of SARS-CoV Urbani [1]: 0.8
Binding of serum 2 to looped/cyclic peptides of protein E of SARS-CoV Urbani [1]: 0.5
Binding of serum 6 to linear peptides of protein E of SARS-CoV Urbani [1]: 0.5
Binding of serum 6 to looped/cyclic peptides of protein E of SARS-CoV Urbani [1]: 0.4
Binding of serum 37 to linear peptides of protein E of SARS-CoV Urbani [1]: 0.4
Binding of serum 37 to looped/cyclic peptides of protein E of SARS-CoV Urbani [1]: 0.5
Binding of serum 62 to linear peptides of protein E of SARS-CoV Urbani [1]: 0.4
Binding of serum 62 to looped/cyclic peptides of protein E of SARS-CoV Urbani [1]: 0.7
Binding of serum London to linear peptides of protein E of SARS-CoV Urbani [1]: 0.8
Binding of serum London to looped/cyclic peptides of protein E of SARS-CoV Urbani [1]: 0.4
Binding of serum SARS-green to linear peptides of protein E of SARS-CoV Urbani [1]: 0.6
Binding of serum SARS-green to looped/cyclic peptides of protein E of SARS-CoV Urbani [1]: 0.3
Binding of serum SARS-yellow to linear peptides of protein E of SARS-CoV Urbani [1]: 0.4
Binding of serum SARS-yellow to looped/cyclic peptides of protein E of SARS-CoV Urbani [1]: 0.5
Binding of Control Serum Blood-Bank to Looped peptides [2]: 0.5
Binding of Control serum Blood-bank to linear peptides [2]: 0.5
Binding of Control serum LUMC to linear peptides [2]: 0.8
Binding of Control serum LUMC to looped peptides [2]: 0.5
Binding of a rabbit serum to linear peptides [3]: 0.3
Binding of a rabbit serum to looped peptides [3]: 0.0

FLAFVVFLLVTLAIL
Binding of serum 1a to linear peptides of protein E of SARS-CoV Urbani [1]: 0.7
Binding of serum 1a to looped/cyclic peptides of protein E of SARS-CoV Urbani [1]: 0.5
Binding of serum 1b to linear peptides of protein E of SARS-CoV Urbani [1]: 0.5
Binding of serum 1b to looped/cyclic peptides of protein E of SARS-CoV Urbani [1]: 0.5
Binding of serum 2 to linear peptides of protein E of SARS-CoV Urbani [1]: 0.2
Binding of serum 2 to looped/cyclic peptides of protein E of SARS-CoV Urbani [1]: 0.6
Binding of serum 6 to linear peptides of protein E of SARS-CoV Urbani [1]: 0.4
Binding of serum 6 to looped/cyclic peptides of protein E of SARS-CoV Urbani [1]: 0.5
Binding of serum 37 to linear peptides of protein E of SARS-CoV Urbani [1]: 0.3
Binding of serum 37 to looped/cyclic peptides of protein E of SARS-CoV Urbani [1]: 0.6
Binding of serum 62 to linear peptides of protein E of SARS-CoV Urbani [1]: 0.1
Binding of serum 62 to looped/cyclic peptides of protein E of SARS-CoV Urbani [1]: 0.7
Binding of serum London to linear peptides of protein E of SARS-CoV Urbani [1]: 0.4
Binding of serum London to looped/cyclic peptides of protein E of SARS-CoV Urbani [1]: 0.4
Binding of serum SARS-green to linear peptides of protein E of SARS-CoV Urbani [1]: 0.7
Binding of serum SARS-green to looped/cyclic peptides of protein E of SARS-CoV Urbani [1]: 0.4
Binding of serum SARS-yellow to linear peptides of protein E of SARS-CoV Urbani [1]: 0.3
Binding of serum SARS-yellow to looped/cyclic peptides of protein E of SARS-CoV Urbani [1]: 0.5
Binding of Control Serum Blood-Bank to Looped peptides [2]: 0.8
Binding of Control serum Blood-bank to linear peptides [2]: 0.4
Binding of Control serum LUMC to linear peptides [2]: 0.4
Binding of Control serum LUMC to looped peptides [2]: 0.6
Binding of a rabbit serum to linear peptides [3]: 0.0
Binding of a rabbit serum to looped peptides [3]: 0.2

FNPETNILLNVPLRG
Binding of serum 1a to linear peptides of protein M of SARS-CoV Urbani [1]: 0.8
Binding of serum 1a to looped/cyclic peptides of protein M of SARS-CoV Urbani [1]: 0.8
Binding of serum 1b to linear peptides of protein M of SARS-CoV Urbani [1]: 0.6
Binding of serum 1b to looped/cyclic peptides of protein M of SARS-CoV Urbani [1]: 0.8
Binding of serum 2 to linear peptides of protein M of SARS-CoV Urbani [1]: 0.5
Binding of serum 2 to looped/cyclic peptides of protein M of SARS-CoV Urbani [1]: 0.7
Binding of serum 6 to linear peptides of protein M of SARS-CoV Urbani [1]: 0.5
Binding of serum 6 to looped/cyclic peptides of protein M of SARS-CoV Urbani [1]: 0.7
Binding of serum 37 to linear peptides of protein M of SARS-CoV Urbani [1]: 0.5
Binding of serum 37 to looped/cyclic peptides of protein M of SARS-CoV Urbani [1]: 0.9
Binding of serum 62 to linear peptides of protein M of SARS-CoV Urbani [1]: 0.4
Binding of serum 62 to looped/cyclic peptides of protein M of SARS-CoV Urbani [1]: 0.8
Binding of serum London to linear peptides of protein M of SARS-CoV Urbani [1]: 0.3
Binding of serum London to looped/cyclic peptides of protein M of SARS-CoV Urbani [1]: 0.3
Binding of serum SARS-green to linear peptides of protein M of SARS-CoV Urbani [1]: 0.5
Binding of serum SARS-green to looped/cyclic peptides of protein M of SARS-CoV Urbani [1]: 0.3
Binding of serum SARS-yellow to linear peptides of protein M of SARS-CoV Urbani [1]: 0.2
Binding of serum SARS-yellow to looped/cyclic peptides of protein M of SARS-CoV Urbani [1]: 0.8
Binding of Control Serum Blood-Bank to Looped peptides of the protein M of SARS-CoV Urbani [2]: 0.8
Binding of Control serum Blood-bank to linear peptides of the protein M of SARS-CoV Urbani [2]: 0.6
Binding of Control serum LUMC to linear peptides of the protein M of SARS-CoV Urbani [2]: 0.7
Binding of Control serum LUMC to looped peptides of the protein M of SARS-CoV Urbani [2]: 0.9
Rabbit serum linear peptides [3]: 0.0
Rabbit serum looped peptides [3]: 0.4

FVVFLLVTLAILTAL
Binding of serum 1a to linear peptides of protein E of SARS-CoV Urbani [1]: 0.6
Binding of serum 1a to looped/cyclic peptides of protein E of SARS-CoV Urbani [1]: 0.4
Binding of serum 1b to linear peptides of protein E of SARS-CoV Urbani [1]: 0.4
Binding of serum 1b to looped/cyclic peptides of protein E of SARS-CoV Urbani [1]: 0.4
Binding of serum 2 to linear peptides of protein E of SARS-CoV Urbani [1]: 0.5
Binding of serum 2 to looped/cyclic peptides of protein E of SARS-CoV Urbani [1]: 0.4
Binding of serum 6 to linear peptides of protein E of SARS-CoV Urbani [1]: 0.3
Binding of serum 6 to looped/cyclic peptides of protein E of SARS-CoV Urbani [1]: 0.6
Binding of serum 37 to linear peptides of protein E of SARS-CoV Urbani [1]: 0.4
Binding of serum 37 to looped/cyclic peptides of protein E of SARS-CoV Urbani [1]: 0.5
Binding of serum 62 to linear peptides of protein E of SARS-CoV Urbani [1]: 0.3
Binding of serum 62 to looped/cyclic peptides of protein E of SARS-CoV Urbani [1]: 0.6
Binding of serum London to linear peptides of protein E of SARS-CoV Urbani [1]: 0.5
Binding of serum London to looped/cyclic peptides of protein E of SARS-CoV Urbani [1]: 0.4
Binding of serum SARS-green to linear peptides of protein E of SARS-CoV Urbani [1]: 0.5
Binding of serum SARS-green to looped/cyclic peptides of protein E of SARS-CoV Urbani [1]: 0.4
Binding of serum SARS-yellow to linear peptides of protein E of SARS-CoV Urbani [1]: 0.2
Binding of serum SARS-yellow to looped/cyclic peptides of protein E of SARS-CoV Urbani [1]: 0.6
Binding of Control Serum Blood-Bank to Looped peptides [2]: 0.7
Binding of Control serum Blood-bank to linear peptides [2]: 0.5
Binding of Control serum LUMC to linear peptides [2]: 0.5
Binding of Control serum LUMC to looped peptides [2]: 0.6
Binding of a rabbit serum to linear peptides [3]: 0.2
Binding of a rabbit serum to looped peptides [3]: 0.2
